Reference: patent publication US20170143674A1, “Use of Glutaryl Histamine for the Treatment of Respiratory Tract Diseases” (LTD "VALENTA-INTELLEKT", priority 2011, published 2017)

Tests used:
[1] = test system: acute bronchitis induced by endotracheal administration of lipopolysaccharide; test: acute bronchitis (bronchiolitis/pneumonia) model, endotracheal LPS; assay type: in vivo, Wistar rats
Source text: The therapeutic effectiveness of glutaryl histamine was studied on an experimental model of acute bronchitis. The therapeutic effectiveness of glutaryl histamine was studied on an experimental model of acute bronchitis induced by endotracheal administration of lipopolysaccharide to laboratory Wistar rats through a probe. […] After administration of LPS, from 5 to 7 motions by the syringe plunger was made for better distribution of LPS in the pulmonary tract. After this manipulation, the animals were monitored for 2 hours to reveal complications after the administration.
Dexamethasone in a dose of 5 mg/kg was used a reference medicament.
Histology and morphometry. Respiratory and air pathways were studied on samples taken from the middle third (hilum of the lung) and apexes of the left lung. […] Material for the analysis of the lung histological structure in all animals was taken from the hilum and apex of the lung to study respiratory and air pathways.
The time history of changes in lungs after administration of LPS are shown in FIGS. 1, 2 and 3, wherein the changes are expressed by semi-quantitative scores (intensity of interstitial edema expressed by scores) or by a percentage ratio of the injured part of the lung.

[2] = test system: acute respiratory distress syndrome (ARDS); test: ARDS model, single intravenous LPS 7.5 mg/kg; assay type: in vivo, rat; details: for Me (%) (mortality rate): 8 days; for Died: total number 10
Experimental: (§1) Since an intravenous administration of lipopolysaccharide (LPS) to animals is one of the most acceptable models for studying the pathogenesis, pathomorphological changes and consequences of acute respiratory distress syndrome, this model was used in this example. Tested medicament glutaryl histamine was administered for 9 days after the first administration of LPS, i.e. glutaryl histamine was administered for 12 days in total (3 days before the induction of ARDS and 9 days during and after the induction). The exception was dexamethasone since, according to the literature data and the information leaflet, long-time administration of steroidal anti-inflammatory agents can cause severe side effects. For this reason, dexamethasone was administered according to the following schedule: 49, 24 and 1 hour before the induction of ARDS in a dose of 5 mg/kg, for 3 days after the first injection of LPS in the same dose; the medicament was withdrawn by a gradual dose reduction for 3 days. Thus, dexamethasone was administered 9 times.
The mortality rate among the animals administered LPS in an intravenous dose of 7.5 mg/kg was 70% for 8 days. The most of them (60%) died on the first day, in particular, from 4 to 12-16 hours after the injection of LPS. The mortality rate among the animals administered glutaryl histamine was different from the rate in animals treated with dexamethasone; however, most of them also died on the first day, about in the same time period (Table 11).

[3] = test system: acute respiratory distress syndrome (ARDS); test: ARDS model, multiple-dose intravenous LPS (LD30); assay type: in vivo, rat; details: for Died: total number 24
Experimental: as §1
At this step, animals were administered LPS at more lower dose, but for longer time period. They were received 2 mg/kg on days 1 and 2, and 3 and 4 mg/kg on days 3 and 4, respectively. The maximum mortality rate, similarly to the single-dose administration of LD70, was on the first day. On eighth day, mortality reached 33%.
The second step of the experiment comprises the evaluation of both the mortality rate of the animals with calculation of the protective index and narrower indexes used for determination of a specific protection provided by glutaryl histamine in ARDS. As was disclosed above, a lower dose of LPS (LD30) was used at the second stage. In addition, LPS was administered every day for 4 days. This method of administration was aimed at achieving the maximum disorder exactly in the lung for subsequent evaluation of possible protective action of glutaryl histamine.

## O=C(O)CCCC(=O)NCCc1c[nH]cn1 [glutaryl histamine]
[1]; 27 mg/kg, 24 hours after administration of LPS
  Peribronchial infiltration and interstitial edema (lung sections): Reduction
[1]; 27 mg/kg, 72 hours after administration of LPS
  Peri- and intrabronchial infiltration and interstitial edema (lung sections): Reduction
[1]; 27 mg/kg, first and third days, compared with the control group
  interstitial edema: reduction
[1]; 27 mg/kg, starting from the second day up to the third day
  alveolar infiltration: significant reduction
[1]; all time points, each tested dose
  Hemorrhagic symptoms in lungs: significantly weaker compared to the control group and the group of dexamethasone
[2]; Glutaryl histamine 0.5 mg/kg
  IP (%) (protective index): 57.1%
  S (%) (survival rate): 70%
  Me (%) (mortality rate): 30%
  Died: 3
[2]; Glutaryl histamine 3 mg/kg
  IP (%) (protective index): 28.6%
  S (%) (survival rate): 50%
  Me (%) (mortality rate): 50%
  Died: 5
[2]; Glutaryl histamine 9 mg/kg
  IP (%) (protective index): 42.9%
  S (%) (survival rate): 60%
  Me (%) (mortality rate): 40%
  Died: 4
[2]; Glutaryl histamine 18 mg/kg
  IP (%) (protective index): 28.6%
  S (%) (survival rate): 50%
  Me (%) (mortality rate): 50%
  Died: 5
[2]; Glutaryl histamine 27 mg/kg
  IP (%) (protective index): 71.4%
  S (%) (survival rate): 80%
  Me (%) (mortality rate): 20%
  Died: 2
[2]; Glutaryl histamine 45 mg/kg
  IP (%) (protective index): 28.6%
  S (%) (survival rate): 50%
  Me (%) (mortality rate): 50%
  Died: 5
[3]; Glutaryl histamine 0.5 mg/kg
  IP (%) (protective index): 62.5%
  M (%) (mortality rate): 12.5%
  S (%) (survival rate): 87.5%
  Died: 3
[3]; Glutaryl histamine 27 mg/kg
  IP (%) (protective index): 75%
  M (%) (mortality rate): 8.3%
  S (%) (survival rate): 91.7%
  Died: 2
[3]; Glutaryl histamine 27 mg/kg, listed as Glutaryl histamine
  IP (%) (protective index): 75.0%
